Values of other authors as cited in PubChem BioAssay AID1259410 (Chemical Carcinogenesis Research Information System (CCRIS), 2018).

System: rodent tumor promotion studies, tumor incidence
Experiment: CCRIS tumor promotion studies
From the text: The CCRIS database contains chemical records with carcinogenicity, mutagenicity, tumor promotion, and tumor inhibition test results. It was developed by the National Cancer Institute (NCI). Data are derived from studies cited in primary journals, current awareness tools, NCI reports, and other sources. Test results have been reviewed by experts in carcinogenesis and mutagenesis.
CCRIS provides historical information from the years 1985 - 2011. It is no longer updated.
This is an archive assay for CCRIS tumor promotion studies.

Structure (SMILES): O=C1[C@H]2CC=CC[C@H]2C(=O)N1SC(Cl)(Cl)Cl
- outcome (Carcinogen: DIETHYLNITROSAMINE, 55-18-5, N-METHYL-N-NITROSOUREA, 684-93-5, N-BIS(2-HYDROXYPROPYL)NITROSAMINE, 53609-64-6, Carcinogen: DIETHYLNITROSAMINE, 55-18-5, N-METHYL-N-NITROSOUREA, 684-93-5, N-BIS(2-HYDROXYPROPYL)NITROSAMINE, 53609-64-6, Doses [Carcinogen]: 100 MG/KG DEN ONCE THEN 20 MG/KG MNU 2/WK FOR 2 WK FOLLOWED BY 0.1% DHPN IN DRINKING WATER FOR 2 WK, Doses [Promoter]: 0, 4000 PPM IN DIET BEGINNING POST CARCINOGEN TREATMENT AND CONTINUING FOR 16 WK (STUDY DURATION: 20 WK), Route [Carcinogen]: INTRAPERITONEAL, INTRAPERITONEAL, ORAL, Route [Carcinogen]: INTRAPERITONEAL, INTRAPERITONEAL, ORAL, Route [Promoter]: ORAL, Species: RAT, Strain/Sex: F344/MALE): kidney: adenoma

Structure (SMILES): COS(C)(=O)=O
- outcome (Carcinogen: N-METHYL-N-NITROSOUREA, 684-93-5, Doses [Carcinogen]: 0.3 MG IN CITRIC ACID PHOSPHATE BUFFER ONCE FOR 30 MIN, Doses [Promoter]: 0, 2.5 MG IN BUFFER 1/2 WK FOR 12 WK BEGINNING 14 D POST CARCINOGEN (STUDY DURATION: 2 YR), Route [Carcinogen]: INTRAVESICULAR, Route [Promoter]: INTRAVESICULAR, Species: RAT, Strain/Sex: F344/FEMALE): bladder: papillary transitional cell carcinoma

Structure (SMILES): Cc1nccc2c1[nH]c1ccccc12
- outcome (Carcinogen: N-ETHYL-N-HYDROXYETHYLNITROSAMINE, 13147-25-6, Doses [Carcinogen]: 0.1% IN DRINKING WATER FOR 2 WK, Doses [Promoter]: 0, 1000 PPM IN DIET BEGINNING 1 WK POST CARCINOGEN TREATMENT AND CONTINUING FOR 23 WK (STUDY DURATION: 26 WK), Route [Carcinogen]: ORAL, Route [Promoter]: ORAL, Species: RAT, Strain/Sex: F344/MALE): kidney: adenoma

Structure (SMILES): CC[C@H](C)[C@H](NC(=O)[C@H](CO)NC(=O)[C@H](CC(N)=O)NC(=O)[C@H](CC(C)C)NC(=O)[C@H](Cc1ccc(O)cc1)NC(=O)[C@H](CCCCN)NC(=O)[C@H](CCCCN)NC(=O)[C@@H](NC(=O)[C@H](C)NC(=O)[C@H](CCSC)NC(=O)[C@H](CCC(N)=O)NC(=O)[C@H](CCCCN)NC(=O)[C@H](CCCNC(=N)N)NC(=O)[C@H](CC(C)C)NC(=O)[C@H](CCCNC(=N)N)NC(=O)[C@@H](NC(=O)[C@H](Cc1ccc(O)cc1)NC(=O)[C@H](CC(N)=O)NC(=O)[C@H](CC(=O)O)NC(=O)[C@@H](NC(=O)[C@H](Cc1ccccc1)NC(=O)[C@@H](NC(=O)[C@H](C)NC(=O)[C@H](CC(=O)O)NC(=O)[C@H](CO)NC(=O)[C@@H](N)Cc1c[nH]cn1)C(C)C)[C@@H](C)O)[C@@H](C)O)C(C)C)C(=O)N[C@@H](CC(C)C)C(=O)N[C@@H](CC(N)=O)C(=O)O
- outcome (Carcinogen: AZOXYMETHANE, 25843-45-2, Doses [Carcinogen]: 7.4 MG/KG BW IN 0.9% SALINE 1/WK FOR 10 WK, Doses [Promoter]: 0, 20 UG/KG BW IN OLIVE OIL 1/2 D FOR DURATION OF STUDY (STUDY DURATION: 45 WK), Route [Carcinogen]: SUBCUTANEOUS, Route [Promoter]: SUBCUTANEOUS, Species: RAT, Strain/Sex: WISTAR/MALE): colon: tumor

Structure (SMILES): CCCCCCCCCC(=O)O[C@@H]1[C@@H](C)[C@@]2(O)[C@@H](C=C(CO)C[C@]3(O)C(=O)C(C)=C[C@@H]23)[C@@H]2C(C)(C)[C@]12OC(=O)CCCCCCCCC
- outcome (Carcinogen: 7,12-DIMETHYLBENZ(A)ANTHRACENE, Doses [Carcinogen]: TOP, Route [Carcinogen]: DERMAL, Route [Promoter]: DERMAL, Species: MOUSE, Strain/Sex: MALE,FEMALE): forestomach

Structure (SMILES): Oc1cc(O)c2c(c1)O[C@H](c1ccc(O)c(O)c1)[C@@H](O)C2
- outcome (Carcinogen: N-METHYL-N'-NITRO-N-NITROSOGUANIDINE, 70-25-7, Doses [Carcinogen]: 150 MG/KG BW ONCE, Doses [Promoter]: 0, 0.8% IN DIET FOR 51 D BEGINNING 1 WK POST CARCINOGEN DOSE (STUDY DURATION: 52 WK), Route [Carcinogen]: GAVAGE, Route [Promoter]: ORAL, Species: RAT, Strain/Sex: F344/MALE): forestomach: carcinoma; glandular stomach: adenocarcinoma

Structure (SMILES): CCC1(CC)C(=O)N=C(O)NC1=O
- outcome (Carcinogen: CISPLATIN, 15663-27-1, Doses [Carcinogen]: 5 MG/KG BW GIVEN INTRAPERITONEALLY TO FEMALE RATS ON DAY 18 OF GESTATION, Doses [Promoter]: 0, 500 PPM IN DRINKING WATER BEGINNING AT 4 WK OF AGE AND CONTINUING FOR 75 WK (STUDY DURATION: 79 WK), Route [Carcinogen]: TRANSPLACENTAL, Route [Promoter]: ORAL, Species: RAT, Strain/Sex: F344/MALE): kidney: renal cell adenoma
- outcome (Carcinogen: METHYL(ACETOXYMETHYL)NITROSAMINE, 56856-83-8, Doses [Carcinogen]: 0.05 MMOL/KG IN 5 ML STERILE PHOSPHATE BUFFER ONCE, Doses [Promoter]: 0, 500 PPM IN DRINKING WATER BEGINNING 2 WK POST CARCINOGEN DOSE AND CONTINUING FOR 78 WK (STUDY DURATION: 80 WK), Route [Carcinogen]: INTRAPERITONEAL, Route [Promoter]: ORAL, Species: RAT, Strain/Sex: F344/MALE): kidney: tumor
- outcome (Carcinogen: N-BUTYL-N-(4-HYDROXYBUTYL)NITROSAMINE, 3817-11-6, Doses [Carcinogen]: 0.5% IN DRINKING WATER FOR 4 WK, Doses [Promoter]: 1000 PPM IN DIET BEGINNING 1 D POST CARCINOGEN DOSE FOR DURATION OF STUDY (STUDY DURATION: 36-52 WK), Route [Carcinogen]: ORAL, Route [Promoter]: ORAL, Species: RAT, Strain/Sex: F344/MALE): urinary bladder: papilloma or carcinoma
- outcome (Carcinogen: N-NITROSODIETHYLAMINE, 55-18-5, Doses [Carcinogen]: 75 MG ONCE, Doses [Promoter]: 0, 500 PPM IN DRINKING WATER BEGINNING 2 WK POST CARCINOGEN DOSE AND CONTINUING FOR DURATION OF STUDY (STUDY DURATION: 5, Route [Carcinogen]: INTRAPERITONEAL, Route [Promoter]: ORAL, Species: RAT, Strain/Sex: F344/MALE): liver: hepatocellular adenoma
- outcome (Carcinogen: N-NITROSODIETHYLAMINE, 55-18-5, Doses [Carcinogen]: 75 MG ONCE, Doses [Promoter]: 0, 500 PPM IN DRINKING WATER BEGINNING 2 WK POST CARCINOGEN DOSE AND CONTINUING FOR DURATION OF STUDY (STUDY DURATION: 7, Route [Carcinogen]: INTRAPERITONEAL, Route [Promoter]: ORAL, Species: RAT, Strain/Sex: F344/MALE): liver: hepatocellular carcinoma; kidney: renal tubular adenoma or adenocarcinoma
- outcome (Carcinogen: N-[4-(5-NITRO-2-FURYL)-2-THIAZOLYL]FORMAMIDE, 24554-26-5, Doses [Carcinogen]: 0.2% IN DIET FOR 6 WK, Doses [Promoter]: 1000 PPM IN DIET BEGINNING 2 WK POST LAST CARCINOGEN DOSE AND CONTINUING FOR DURATION OF STUDY (STUDY DURATION: 52-68 WK, Route [Carcinogen]: ORAL, Route [Promoter]: ORAL, Species: RAT, Strain/Sex: F344/MALE): urinary bladder: papilloma or carcinoma
- outcome (Carcinogen: NONE (PROMOTION OF SPONTANEOUS TUMORS), Doses [Promoter]: 500 PPM IN DIET FOR 4.5 MONTHS (STUDY DURATION: 4.5 MONTHS), Route [Promoter]: ORAL, Species: RAT, Strain/Sex: EKER (TSC2 MUTANT)/MALE): kidney: adenoma or carcinoma
- outcome (Doses [Carcinogen]: 45 UMOL/KG BW GIVEN INTRAPERITONEALLY TO MOTHERS ON DAYS 16 AND 18 OF GESTATION, Doses [Promoter]: 0, 0.05% IN DRINKING WATER BEGINNING AT 4 WK OF AGE AND CONTINUING FOR 81 WK (STUDY DURATION: 85 WK), Route [Carcinogen]: TRANSPLACENTAL, Route [Promoter]: ORAL, Species: RAT, Strain/Sex: F344/MALE): kidney: tumors
- outcome (Doses [Carcinogen]: 90 UMOL/KG BW GIVEN INTRAPERITONEALLY TO MOTHERS ON DAY 17 OF GESTATION, Doses [Promoter]: 0, 0.05% IN DRINKING WATER BEGINNING AT 4 WK OF AGE AND CONTINUING FOR 81 WK (STUDY DURATION: 85 WK), Route [Carcinogen]: TRANSPLACENTAL, Route [Promoter]: ORAL, Species: RAT, Strain/Sex: F344/MALE): kidney: tumors
- outcome (Doses [Carcinogen]: 90 UMOL/KG ONCE IN DISTILLED WATER, Doses [Promoter]: 0, 500 PPM IN DRINKING WATER BEGINNING 2 WK POST CARCINOGEN DOSE (STUDY DURATION: 96 WK), Route [Carcinogen]: INTRAPERITONEAL, Route [Promoter]: ORAL, Species: RAT, Strain/Sex: F344/MALE): kidney: adenoma or carcinoma

Structure (SMILES): CN(C)CCC=C1c2ccccc2CCc2ccccc21
- outcome (Carcinogen: 7,12-DIMETHYLBENZ[A]ANTHRACENE, 57-97-6, Doses [Carcinogen]: 20 MG IN 2 ML PEANUT OIL ONCE, Doses [Promoter]: 0, 80 MG/M2 5 D/WK FOR 15 WK BEGINNING POST CARCINOGEN DOSE (STUDY DURATION: 15 WK), Route [Carcinogen]: GAVAGE, Route [Promoter]: INTRAPERITONEAL, Species: RAT, Strain/Sex: SPRAGUE-DAWLEY/FEMALE): mammary gland: tumor
